Here are results for one compound from ChEMBL document CHEMBL5725462, “Substituted triazolopyridines” (2017).

The test deals with T1, Dual specificity protein kinase TTK (Homo sapiens, UniProt P33981).
T1 sequence (P33981 whole entry): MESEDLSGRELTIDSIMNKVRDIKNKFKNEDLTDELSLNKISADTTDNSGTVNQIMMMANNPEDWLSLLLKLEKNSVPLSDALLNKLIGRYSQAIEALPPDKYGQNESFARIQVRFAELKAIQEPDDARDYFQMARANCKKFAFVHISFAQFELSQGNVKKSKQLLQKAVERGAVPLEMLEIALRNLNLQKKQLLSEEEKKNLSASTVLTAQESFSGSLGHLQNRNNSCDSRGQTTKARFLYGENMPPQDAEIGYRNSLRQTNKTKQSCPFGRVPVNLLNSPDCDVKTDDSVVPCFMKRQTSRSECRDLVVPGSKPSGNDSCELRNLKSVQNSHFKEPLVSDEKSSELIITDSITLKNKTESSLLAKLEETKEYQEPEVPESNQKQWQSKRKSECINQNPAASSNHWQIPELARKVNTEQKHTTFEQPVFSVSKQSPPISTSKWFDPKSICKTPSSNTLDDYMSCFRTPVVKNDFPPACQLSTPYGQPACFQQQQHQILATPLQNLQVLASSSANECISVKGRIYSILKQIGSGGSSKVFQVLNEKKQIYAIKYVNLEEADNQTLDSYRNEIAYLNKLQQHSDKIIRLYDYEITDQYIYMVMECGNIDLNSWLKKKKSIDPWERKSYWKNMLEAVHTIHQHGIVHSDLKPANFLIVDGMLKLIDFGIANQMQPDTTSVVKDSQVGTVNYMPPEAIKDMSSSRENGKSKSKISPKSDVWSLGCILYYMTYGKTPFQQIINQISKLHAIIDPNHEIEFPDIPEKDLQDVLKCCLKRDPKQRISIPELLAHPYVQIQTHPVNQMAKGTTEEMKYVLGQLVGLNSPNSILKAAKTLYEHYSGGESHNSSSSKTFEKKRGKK
Nature of the test: The concentration of Mps-1 in the assay was adjusted to the activity of the enzyme lot and was chosen appropriate to have the assay in the linear range, typical enzyme concentrations were in the range of about 1 nM (final conc. in the 5 μl assay volume).

For orientation: IC50 means the concentration that inhibits the measured activity by half. A high value points to weaker potency in that assay.

Compound `COc1cc(C(=O)N2CC3(COC3)C2)ccc1Nc1nc2ccc(-c3ccc(C(=O)NCc4ccc(F)cc4)nc3)cn2n1` registered a concentration for half-maximal inhibition (IC50) of under 1 nM.
